Among the data in patent US20240270762A1, “PENICILLIN-BINDING PROTEIN INHIBITORS” (priority 2021, published 2024) are EC50, IC50 and MIC values, retold here.

For assay [1], the target named is T1, PBP3 from Escherichia coli (K-12) (Escherichia coli, UniProt P0AD68).
T1 construct: made in house
Kind of assay: Bocillin-FL fluorescence polarization competition binding, E. coli PBP3. In outline: (§1)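 Purified PBP was preincubated with inhibitor (E. coli PBP3 1.5 μM, 30 min; P. aeruginosa PBP3 0.75 μM, A. baumannii PBP3 0.2 μM and PBP1a 1 μM, 15 min), then Bocillin-FL (0.1 μM; 0.05 μM for PBP1a) added and FP read up to 60 min. EC50 = 50% loss of bound probe.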
A general note: Polarisation of emitted light reports the rotation of a fluorescent probe.

Assay [2] has as its target T2, PBP3 from Pseudomonas aeruginosa (PAO1) (Pseudomonas aeruginosa, UniProt G3XD46).
T2 construct: made in house
Kind of assay: Bocillin-FL fluorescence polarization competition binding, P. aeruginosa PBP3. The following applies: Binding affinity to P. aeruginosa PBP3; fluorescence polarization competition binding assay using Bocillin-FL; read-out: P. aeruginosa PBP3 Potency. In outline: as §1

For the next assay, the system named is P. aeruginosa ATCC 27853. Kind of assay: microbe, parasite or virus in culture. It counts as cell-based. The following applies: Pseudomonas aeruginosa, ATCC27853, read-out: Minimum inhibitory concentration, P. aeruginosa ATCC 27853.
A further assay deals with A. baumannii ATCC 19606. The assay is described as follows: microbe, parasite or virus in culture. In kind it is cell-based. The following applies: Acinetobacter baumannii, ATCC19606, read-out: MIC, A. baumannii ATCC 19606.
For assay [3], the system named is P. aeruginosa (ΔmexAB-oprM). The assay is described as follows: Broth microdilution MIC in iron-depleted CAMHB (IDM). It counts as cell-based. The following applies: Pseudomonas aeruginosa; iron-depleted CAMHB (IDM); […]; read-out: Minimum inhibitory concentration, P. aeruginosa ΔmexAB-oprM. On the technique in general: Broth dilution looks for growth in wells or tubes with falling amounts of substance.

The next assay has as its system A. baumannii CDC-0045. The assay is described as follows: microbe, parasite or virus in culture. In kind it is cell-based. As to conditions: Acinetobacter baumannii, CDC0045, read-out: MIC, A. baumannii CDC-0045.
For assay [4], the system named is B. thailandensis ATCC 700388. Kind of assay: microbe, parasite or virus in culture. It counts as cell-based. The following applies: Burkholderia thailandensis, ATCC700388, read-out: Minimum inhibitory concentration (MIC), B. thailandensis ATCC 700388.
Assay [5] deals with B. humptydooensis ATCC BAA-2767. Kind of assay: microbe, parasite or virus in culture. It counts as cell-based. The following applies: Burkholderia humptydooensis, ATCCBAA2767, read-out: Minimum inhibitory concentration (MIC), B. humptydooensis ATCC BAA-2767.
Assay [6] relates to N. gonorrhoeae ATCC 49226. The assay is described as follows: Liquid broth MIC in Fastidious broth. As to conditions: Neisseria gonorrhoeae, ATCC49226, read-out: Minimum Inhibitory Concentration, ATCC 49226.
The subject of the next assay is N. gonorrhoeae FA1090. Kind of assay: Liquid broth MIC in Fastidious broth. As to conditions: Neisseria gonorrhoeae, FA1090, read-out: Minimum Inhibitory Concentration, FA 1090.
In a further assay the test system is N. gonorrhoeae MS11. The assay is described as follows: Liquid broth MIC in Fastidious broth. The following applies: Neisseria gonorrhoeae, MS11, read-out: Minimum Inhibitory Concentration, MS11.
In the next assay the test system is N. gonorrhoeae WHO G. Kind of assay: Liquid broth MIC in Fastidious broth. As to conditions: Neisseria gonorrhoeae, read-out: Minimum Inhibitory Concentration, WHO G.
Another assay concerns N. gonorrhoeae WHO L. The assay is described as follows: Liquid broth MIC in Fastidious broth. As to conditions: Neisseria gonorrhoeae, read-out: Minimum Inhibitory Concentration, WHO L.
The test system of another assay is N. gonorrhoeae WHO Z. The assay is described as follows: Liquid broth MIC in Fastidious broth. The following applies: Neisseria gonorrhoeae, read-out: Minimum Inhibitory Concentration, WHO Z.
The test system of a further assay is N. gonorrhoeae CDC-0197. Kind of assay: Liquid broth MIC in Fastidious broth. The following applies: Neisseria gonorrhoeae, CDC0197, read-out: Minimum Inhibitory Concentration, CDC-0197.

pEC50, pIC50: −log10 of the molar value. Converted amounts (≈) assume the structure as drawn.

T2 sequence (G3XD46 whole entry): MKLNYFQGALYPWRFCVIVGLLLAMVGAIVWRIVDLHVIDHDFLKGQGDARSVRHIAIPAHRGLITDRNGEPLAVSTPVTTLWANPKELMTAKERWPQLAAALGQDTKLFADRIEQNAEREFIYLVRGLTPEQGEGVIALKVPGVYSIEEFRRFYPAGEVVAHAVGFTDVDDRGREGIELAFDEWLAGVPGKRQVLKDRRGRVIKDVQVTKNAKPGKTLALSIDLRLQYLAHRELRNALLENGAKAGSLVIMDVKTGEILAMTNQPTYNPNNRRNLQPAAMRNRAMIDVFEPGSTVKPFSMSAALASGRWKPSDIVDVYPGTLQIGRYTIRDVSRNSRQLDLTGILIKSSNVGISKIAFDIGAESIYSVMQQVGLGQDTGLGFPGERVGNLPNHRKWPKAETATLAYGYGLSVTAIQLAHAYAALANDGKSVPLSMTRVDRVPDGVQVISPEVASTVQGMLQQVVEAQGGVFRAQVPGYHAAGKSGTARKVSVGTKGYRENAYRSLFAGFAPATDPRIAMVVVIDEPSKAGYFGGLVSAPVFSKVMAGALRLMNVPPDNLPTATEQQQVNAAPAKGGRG
T1 sequence (P0AD68 1-577): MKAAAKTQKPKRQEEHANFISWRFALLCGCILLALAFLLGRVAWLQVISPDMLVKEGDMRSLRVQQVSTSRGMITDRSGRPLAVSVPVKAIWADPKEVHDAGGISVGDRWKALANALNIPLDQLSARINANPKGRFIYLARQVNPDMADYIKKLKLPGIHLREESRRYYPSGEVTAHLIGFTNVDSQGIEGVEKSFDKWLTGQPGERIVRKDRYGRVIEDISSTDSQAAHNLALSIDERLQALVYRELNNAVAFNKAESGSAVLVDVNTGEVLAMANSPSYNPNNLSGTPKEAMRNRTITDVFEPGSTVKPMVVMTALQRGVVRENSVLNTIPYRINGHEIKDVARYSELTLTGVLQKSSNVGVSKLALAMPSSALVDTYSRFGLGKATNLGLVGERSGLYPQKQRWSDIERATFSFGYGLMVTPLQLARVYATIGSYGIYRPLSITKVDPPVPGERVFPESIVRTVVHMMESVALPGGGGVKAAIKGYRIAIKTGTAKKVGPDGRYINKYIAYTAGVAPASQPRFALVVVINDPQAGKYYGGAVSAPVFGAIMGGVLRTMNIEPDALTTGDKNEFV

Consider `O=C(NCCCS(=O)(=O)N1CCN(C(=O)NC(C(=O)N[C@H]2Cc3ccc(F)c(C(=O)O)c3OB2O)c2cc(F)c(O)c(O)c2Cl)C1=O)c1nccs1` (stereo partly drawn) [Example 274, (3R)-3-(2-(2-chloro-5-fluoro-3,4-dihydroxyphenyl)-2-(2-oxo-3-((3-(thiazole-2-carboxamido)propyl)sulfonyl)imidazolidine-1-carboxamido)acetamido)-7-fluoro-2-hydroxy-3,4-dihydro-2H-benzo[e][1,2]oxaborinine-8-carboxylic acid], for which the pEC50 (usually the EC50 on a negative log10 scale, so that one unit is a factor of ten) in [1] was over 5.00. Moreover, the pIC50 in assay [2] is over 5.00. Also, the MIC in the assay with P. aeruginosa ATCC 27853 is 2 to 4 µg/mL (≈ 2.54 to 5.08 µM); in the assay on A. baumannii ATCC 19606, under 1 µg/mL; in [3] it was under 1 µg/mL; in the assay on A. baumannii CDC-0045 it was under 1 µg/mL; in assay [4] it was over 128 µg/mL; in assay [5], 2 to 4 µg/mL (≈ 2.54 to 5.08 µM). For the same compound, the MIC is 16 to 32 µg/mL (≈ 20.3 to 40.7 µM) in assay [6]; 4 to 8 µg/mL (≈ 5.08 to 10.2 µM) in the assay with N. gonorrhoeae FA1090; 16 to 32 µg/mL (≈ 20.3 to 40.7 µM) in the assay with N. gonorrhoeae MS11; 16 to 32 µg/mL (≈ 20.3 to 40.7 µM) in the assay with N. gonorrhoeae WHO G; over 64 µg/mL in the assay on N. gonorrhoeae WHO L; 16 to 32 µg/mL (≈ 20.3 to 40.7 µM) with N. gonorrhoeae WHO Z. Besides, the MIC with N. gonorrhoeae CDC-0197 fell in the range of 16 to 32 µg/mL (≈ 20.3 to 40.7 µM).
Regarding `O=C(O)c1c(F)ccc2c1OB(O)[C@@H](NC(=O)C(NC(=O)N1CCN(S(=O)(=O)CCCNC(=O)[C@@H]3CCCN3)C1=O)c1cc(F)c(O)c(O)c1Cl)C2` (stereo partly drawn) [Example 275, (3R)-3-(2-(2-chloro-5-fluoro-3,4-dihydroxyphenyl)-2-(2-oxo-3-((3-((S)-pyrrolidine-2-carboxamido)propyl)sulfonyl)imidazolidine-1-carboxamido)acetamido)-7-fluoro-2-hydroxy-3,4-dihydro-2H-benzo[e][1,2]oxaborinine-8-carboxylic acid], the pEC50 in [1] is 4.30 to 5.00. Further, the pIC50 in assay [2] was over 5.00. The MIC in the assay on P. aeruginosa ATCC 27853 is 2 to 4 µg/mL (≈ 2.59 to 5.18 µM); in the assay with A. baumannii ATCC 19606, under 1 µg/mL; in assay [3], under 1 µg/mL; in the assay on A. baumannii CDC-0045, under 1 µg/mL; in [4] it was under 1 µg/mL; in assay [5], under 1 µg/mL. Also, the MIC in assay [6] is 16 to 32 µg/mL (≈ 20.7 to 41.4 µM); with N. gonorrhoeae FA1090, 4 to 8 µg/mL (≈ 5.18 to 10.4 µM); in the assay with N. gonorrhoeae MS11, 16 to 32 µg/mL (≈ 20.7 to 41.4 µM); with N. gonorrhoeae WHO G, 16 to 32 µg/mL (≈ 20.7 to 41.4 µM); in the assay with N. gonorrhoeae WHO L, over 64 µg/mL; in the assay on N. gonorrhoeae WHO Z, 16 to 32 µg/mL (≈ 20.7 to 41.4 µM). The MIC in the assay with N. gonorrhoeae CDC-0197 lay within 16 to 32 µg/mL (≈ 20.7 to 41.4 µM).
As for `O=C(NCCCS(=O)(=O)N1CCN(C(=O)NC(C(=O)N[C@H]2Cc3ccc(F)c(C(=O)O)c3OB2O)c2cc(F)c(O)c(O)c2Cl)C1=O)Nc1ccc(O)cc1` (stereo partly drawn) [Example 276, (3R)-3-(2-(2-chloro-5-fluoro-3,4-dihydroxyphenyl)-2-(3-((3-(3-(4-hydroxyphenyl)ureido)propyl)sulfonyl)-2-oxoimidazolidine-1-carboxamido)acetamido)-7-fluoro-2-hydroxy-3,4-dihydro-2H-benzo[e][1,2]oxaborinine-8-carboxylic acid], the pEC50 in assay [1] is over 5.00. The pIC50 in assay [2] was over 5.00. Further, the MIC is 2 to 4 µg/mL (≈ 2.47 to 4.93 µM) in the assay with P. aeruginosa ATCC 27853; under 1 µg/mL with A. baumannii ATCC 19606; under 1 µg/mL in [3]; 2 to 4 µg/mL (≈ 2.47 to 4.93 µM) in the assay on A. baumannii CDC-0045; over 128 µg/mL in assay [4]; 32 to 64 µg/mL (≈ 39.5 to 78.9 µM) in assay [5]. The MIC in [6] is 16 to 32 µg/mL (≈ 19.7 to 39.5 µM); with N. gonorrhoeae FA1090, 1 to 2 µg/mL (≈ 1.23 to 2.47 µM); in the assay with N. gonorrhoeae MS11, 16 to 32 µg/mL (≈ 19.7 to 39.5 µM); in the assay on N. gonorrhoeae WHO G, 16 to 32 µg/mL (≈ 19.7 to 39.5 µM); with N. gonorrhoeae WHO L, over 64 µg/mL; in the assay with N. gonorrhoeae WHO Z it was 4 to 8 µg/mL (≈ 4.93 to 9.87 µM). Further, the MIC in the assay on N. gonorrhoeae CDC-0197 is 16 to 32 µg/mL (≈ 19.7 to 39.5 µM).
